This note sets out measurements from US20250368649A1, “TETRAHYDROPYRIDOPYRIMIDINE PAN-KRAS INHIBITORS” (Mirati Therapeutics, Inc., priority 2022, published 2025).

For orientation: IC50 means the concentration that gives 50% inhibition. High values mean weaker potency, low ones greater potency.

In test [1] the test system is H460 cells. In words: Inhibition of KRas-mediated phosphorylation of ERK (Cisbio HTRF pERK), H460 cells. Conditions: Homo sapiens, NCI-H460, 3 h, 3 hr compound incubation. The class given is cell-based. For orientation: TR-FRET usually uses a lanthanide donor and a delayed reading to cut background.
Test [2] deals with KRas G12R (Homo sapiens, UniProt P01116, G12R). In words: biochemical. Conditions: Binding to KRas (IC50 nM) G12R, TR-FRET displacement, KRas G12R.
KRas G12R, sequence (P01116 1-169 isoform P01116-2 G12R): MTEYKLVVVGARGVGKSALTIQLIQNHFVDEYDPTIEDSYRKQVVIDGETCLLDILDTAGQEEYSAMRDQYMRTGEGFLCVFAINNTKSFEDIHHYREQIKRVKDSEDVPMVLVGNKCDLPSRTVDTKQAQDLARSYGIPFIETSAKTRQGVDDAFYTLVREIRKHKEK
The subject of test [3] is ASPC1 cells. In words: Inhibition of KRas-mediated phosphorylation of ERK (Cisbio HTRF pERK), ASPC1 cells. In kind it is cell-based. Conditions: Homo sapiens, ASPC1, 3 h, AsPC-1 cells; 3 hr compound incubation.
Test [4] deals with PSN1 cells. In words: Inhibition of KRas-mediated phosphorylation of ERK (Cisbio HTRF pERK), PSN1 cells. Conditions: Homo sapiens, PSN1, 3 h, 3 hr compound incubation. In kind it is cell-based. Put shortly: (§1)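 Phospho-ERK signal measured by HTRF after cells had been plated at 6,000/well in RPMI supplemented with 10% FBS on day 1.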
The test system of test [5] is A549 cells. In words: Inhibition of KRas-mediated phosphorylation of ERK (Cisbio HTRF pERK), A549 cells. The class given is cell-based. Conditions: Homo sapiens, A549, 3 h, 3 hr compound incubation.
Test [6] deals with HCT116 cells. In words: Inhibition of KRas-mediated phosphorylation of ERK (Cisbio HTRF pERK), HCT116 cells. The class given is cell-based. Conditions: Homo sapiens, HCT-116, 3 h, 3 hr compound incubation.
The test system of test [7] is H727 cells. In words: Inhibition of KRas-mediated phosphorylation of ERK (Cisbio HTRF pERK), H727 cells. In kind it is cell-based. Conditions: Homo sapiens, NCI-H727, 3 h, 3 hr compound incubation.
Test [8] relates to H358 cells. In words: Inhibition of KRas-mediated phosphorylation of ERK (Cisbio HTRF pERK), H358 cells. The class given is cell-based. Conditions: Homo sapiens, NCI-H358, 3 h, 3 hr compound incubation.
Test [9] relates to MKN1 cells. In words: Inhibition of KRas-mediated phosphorylation of ERK (Cisbio HTRF pERK), MKN1 cells. Conditions: Homo sapiens, MKN-1, 3 hr compound incubation. The class given is cell-based. The method in brief:
as §1

Test [10] concerns the target KRas G12D (Homo sapiens, UniProt P01116, G12D). In words: biochemical. Conditions: Binding to KRas (IC50 nM) G12D, TR-FRET displacement, KRas G12D.
For test [11], the target named is KRas G12V (Homo sapiens, UniProt P01116, G12V). In words: biochemical. Conditions: Binding to KRas (IC50 nM) G12V, TR-FRET displacement, KRas G12V.
KRas G12V, sequence (P01116 1-169 isoform P01116-2 G12V): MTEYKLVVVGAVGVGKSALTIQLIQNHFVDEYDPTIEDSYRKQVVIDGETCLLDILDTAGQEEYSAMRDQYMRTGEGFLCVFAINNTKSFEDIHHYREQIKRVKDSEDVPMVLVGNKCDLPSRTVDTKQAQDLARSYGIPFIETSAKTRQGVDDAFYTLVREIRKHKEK

Molecules are shown by their SMILES.

KRas G12D, sequence (P01116 1-169 isoform P01116-2 G12D): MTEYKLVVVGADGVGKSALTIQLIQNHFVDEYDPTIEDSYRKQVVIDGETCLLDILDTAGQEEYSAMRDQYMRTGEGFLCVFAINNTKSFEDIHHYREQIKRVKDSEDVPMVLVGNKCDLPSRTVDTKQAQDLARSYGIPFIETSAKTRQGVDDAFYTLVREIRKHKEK

For `CCc1c(F)ccc2cc(O)cc(N3CCc4c(nc(OC[C@@]56CCCN5C[C@H](F)C6)nc4N4CCCn5nc(C(=O)N6C[C@@H]7CCC[C@H]6C7)cc5C4)C3)c12` [Example 615, ((1R,5S)-6-azabicyclo[3.2.1]octan-6-yl)(5-(7-(8-ethyl-7-fluoro-3-hydroxynaphthalen-1-yl)-2-(((2R,7aS)-2-fluorotetrahydro-1H-pyrrolizin-7a(5H)-yl)methoxy)-5,6,7,8-tetrahydropyrido[3,4-d]pyrimidin-4-yl)-5,6,7,8-tetrahydro-4H-pyrazolo[1,5-a][1,4]diazepin-2-yl)methanone], the IC50 in [1] is 41 nM; in test [2], 2 nM; in test [3], 7 nM; in test [4], 4640 nM; in test [5], 15 nM; in [6], 144 nM. The 50% inhibitory concentration (IC50) in [7] is 4 nM; in test [8] it was 6 nM; in [9], 34.6 nM; in [10], 3 nM; in [11] it was below 2 nM.

In the case of `CCc1c(F)ccc2cc(O)cc(N3CCc4c(nc(OC[C@@]56CCCN5C[C@H](F)C6)nc4N4CCCn5nc(C(=O)N6C[C@H]7CCC[C@@H]6C7)cc5C4)C3)c12` [Example 616, ((1S,5R)-6-azabicyclo[3.2.1]octan-6-yl)(5-(7-(8-ethyl-7-fluoro-3-hydroxynaphthalen-1-yl)-2-(((2R,7aS)-2-fluorotetrahydro-1H-pyrrolizin-7a(5H)-yl)methoxy)-5,6,7,8-tetrahydropyrido[3,4-d]pyrimidin-4-yl)-5,6,7,8-tetrahydro-4H-pyrazolo[1,5-a][1,4]diazepin-2-yl)methanone], the IC50 in test [1] is 48 nM; in test [2] it was 3 nM; in test [3], 17 nM; in test [4] it was above 10000 nM; in test [5], 24 nM; in test [6] it was 176 nM. Further, the IC50 was 17 nM in [7]; 11 nM in test [8]; 62.9 nM in test [9]; 4 nM in test [10]; below 2 nM in [11].

Consider `CCc1c(F)ccc2cc(O)cc(N3CCc4c(nc(OC[C@@]56CCCN5C[C@H](F)C6)nc4N4CCCn5nc(C(=O)N6C[C@H]7CO[C@H](C7)C6)cc5C4)C3)c12` [Example 619, ((1S,5R)-6-oxa-3-azabicyclo[3.2.1]octan-3-yl)(5-(7-(8-ethyl-7-fluoro-^3-hydroxynaphthalen-1-yl)-2-(((2R,7aS)-2-fluorotetrahydro-1H-pyrrolizin-7a(5H)-yl)methoxy)-5,6,7,8-tetrahydropyrido[3,4-d]pyrimidin-4-yl)-5,6,7,8-tetrahydro-4H-pyrazolo[1,5-a][1,4]diazepin-2-yl)methanone], for which the IC50 is 34 nM in test [1]; below 2 nM in test [2]; 5 nM in test [3]; 1420 nM in test [4]; 10 nM in test [5]; 69 nM in test [6]. For the same compound, the IC50 in test [7] is 7 nM; in test [8] it was 1 nM; in test [9], 1.9 nM; in test [10], below 2 nM; in test [11] it was below 2 nM.

Turning to `CCc1c(F)ccc2cc(O)cc(N3CCc4c(nc(OC[C@@]56CCCN5C[C@H](F)C6)nc4N4CCCn5nc(C(=O)N6C[C@@H]7CO[C@@H](C7)C6)cc5C4)C3)c12` [Example 620, ((1R,5S)-6-oxa-3-azabicyclo[3.2.1]octan-3-yl)(5-(7-(8-ethyl-7-fluoro-3-hydroxynaphthalen-1-yl)-2-(((2R,7aS)-2-fluorotetrahydro-1H-pyrrolizin-7a(5H)-yl)methoxy)-5,6,7,8-tetrahydropyrido[3,4-d]pyrimidin-4-yl)-5,6,7,8-tetrahydro-4H-pyrazolo[1,5-a][1,4]diazepin-2-yl)methanone], the IC50 in test [1] was 30 nM; in [2], below 2 nM; in [3] it was 6 nM; in test [4], 2670 nM; in test [5], 24 nM; in test [6], 111 nM. Besides, the IC50 in test [7] is 7 nM; in [8], 2 nM; in test [9] it was 3.7 nM; in test [10], below 2 nM; in [11] it was below 2 nM.

Turning to `CCc1c(F)ccc2cc(O)cc(N3CCc4c(nc(OC[C@@]56CCCN5C[C@H](F)C6)nc4N4CCCn5nc(C(=O)N6CC[C@H]7C[C@@H]6CO7)cc5C4)C3)c12` [Example 623, ((1R,5S)-6-oxa-2-azabicyclo[3.2.1]octan-2-yl)(5-(7-(8-ethyl-7-fluoro-3-hydroxynaphthalen-1-yl)-2-(((2R,7aS)-2-fluorotetrahydro-1H-pyrrolizin-7a(5H)-yl)methoxy)-5,6,7,8-tetrahydropyrido[3,4-d]pyrimidin-4-yl)-5,6,7,8-tetrahydro-4H-pyrazolo[1,5-a][1,4]diazepin-2-yl)methanone], the 50% inhibitory concentration (IC50) in test [1] was 12 nM; in test [2] it was below 2 nM; in test [3], 1 nM; in test [4], 1420 nM; in [5], 5 nM; in test [6] it was 31 nM. Also, the IC50 in test [7] is 2 nM; in [8] it was 1 nM; in test [9], 1.6 nM; in [10], below 2 nM; in test [11] it was below 2 nM.

For the compound `CCc1c(F)ccc2cc(O)cc(N3CCc4c(nc(OC[C@@]56CCCN5C[C@H](F)C6)nc4N4CCCn5nc(C(=O)N6CC[C@@H]7C[C@H]6CO7)cc5C4)C3)c12` [Example 624, ((1 S,5R)-6-oxa-2-azabicyclo[3.2.1]octan-2-yl)(5-(7-(8-ethyl-7-fluoro-3-hydroxynaphthalen-1-yl)-2-(((2R,7aS)-2-fluorotetrahydro-1H-pyrrolizin-7a(5H)-yl)methoxy)-5,6,7,8-tetrahydropyrido[3,4-d]pyrimidin-4-yl)-5,6,7,8-tetrahydro-4H-pyrazolo[1,5-a][1,4]diazepin-2-yl)methanone], the IC50 in test [1] was 22 nM; in [2] it was below 2 nM; in [3], 4 nM; in test [4], 2470 nM; in [5] it was 19 nM; in [6], 66 nM. For the same compound, the IC50 in test [7] was 6 nM; in [8], 4 nM; in test [9], 10.5 nM; in test [10] it was below 2 nM; in [11], below 2 nM.

In the case of `CCc1c(F)ccc2cc(O)cc(N3CCc4c(nc(OC[C@@]56CCCN5C[C@H](F)C6)nc4N4CCCn5nc(C(=O)N(C)C)c(O)c5C4)C3)c12` [Example 628, 5-(7-(8-ethyl-7-fluoro-3-hydroxynaphthalen-1-yl)-2-(((2R,7aS)-2-fluorotetrahydro-1H-pyrrolizin-7a(5H)-yl)methoxy)-5,6,7,8-tetrahydropyrido[3,4-d]pyrimidin-4-yl)-3-hydroxy-N,N-dimethyl-5,6,7,8-tetrahydro-4H-pyrazolo[1,5-a][1,4]diazepine-2-carboxamide], the IC50 in test [1] is 32 nM; in test [2] it was below 2 nM; in test [3], 2 nM; in test [4], above 10000 nM; in test [5] it was 7 nM; in test [6] it was 78 nM. Also, the IC50 in test [7] was 13 nM; in test [8], 3 nM; in test [9], 1.6 nM; in test [10], below 2 nM; in test [11] it was below 2 nM.
